Laboratory results taken from patent US20260258121A1, “USES OF POMC-SPECIFIC ANTIBODY AND MARCHF6” (KOREA UNIVERSITY RESEARCH AND BUSINESS FOUNDATION, priority 2023, published 2026).

Tested on: Gpx4
Assay: Immunoblotting of Gpx4 in POMCha^Δ1-26-expressing N43/5 cells treated with degradation inhibitors
Type: cell-based, mouse
Settings: 8 hours
Protocol: To determine whether full-length POMCha or cytosolic POMCha^[…] regulated the expression of Gpx4 protein, which was known to be degraded by ferroptosis induction, the mRNA level of Gpx4 was analyzed by qRT-PCR in […]/5 cells overexpressing full-length POMCha or cytosolic POMCha^[…], and subjected to CHX-chase assay. In addition, since Gpx4 degradation occurred through chaperone-mediated autophagy (CMA), macroautophagy, or the Ub-proteasome system, […]/5 cells overexpressing POMCha^[…] were treated with a lysosomal inhibitor such as chloroquine (CQ) or BafA1 (bafilomycin A1), a proteasome inhibitor MG132, or a macroautophagy inhibitor 3-MA (3-methyladenine), and the expression of Gpx4 protein was analyzed by immunoblotting. In addition, the expression of lysosome-associated protein 2A (Lamp2a), heat shock chaperones Hsc70 and Hsp90 was confirmed by immunoblotting in […]/5 cells overexpressing POMCha^[…], and changes in Gpx4 were analyzed by treatment with Lamp2a-specific siRNA (SCBT, sc-35791).

Row | SMILES | Gpx4 downregulation in POMCha^Δ1-26-expressing N43/5 cells, effect of treatment (BafA1 100 nM) | Gpx4 downregulation in POMCha^Δ1-26-expressing N43/5 cells, effect of treatment (CQ 50 μM)
1 | CO/C1=C\C(C)=C\[C@@H](C)[C@@H](O)[C@@H](C)C/C(C)=C/C=C/[C@H](OC)[C@@H]([C@@H](C)[C@@H](O)[C@H](C)[C@@]2(O)C[C@@H](O)[C@H](C)[C@@H](C(C)C)O2)OC1=O [BafA1, bafilomycin A1] | restored | 
2 | CCN(CC)CCCC(C)Nc1ccnc2cc(Cl)ccc12 (centres unmarked) [CQ, chloroquine] |  | restored
